Experimental data reported in patent US20220087962A1, “COMPOSITIONS AND METHODS FOR TREATING AGE-RELATED DISEASES OR CONDITIONS” (Arizona Board of Regents on Behalf of the University of …, priority 2019, published 2022).
“Also recorded” adds a separate entry of the source.

How the values were obtained:
tau = conditions: cultured human neurons; cited from earlier work
α-synuclein = α-synuclein (Homo sapiens, UniProt P37840); conditions: QA self-assembled fibrils; cited from earlier work
brain tissue = conditions: cited from earlier work
C. elegans [1] = test: C. elegans lifespan with 3HAA supplementation; format: in vivo, Caenorhabditis elegans; conditions: 3HAA supplementation of worms
Protocol: 3HAA mediates lifespan extension by haao-1 knockdown. 3HAA is red in color. Worms with reduced HAAO turned visibly red with age. Using liquid chromatography-tandem mass spectrometry (LC-MS/MS), it was confirmed that these worms had elevated 3HAA (FIG. 3B). Next, it was assessed whether 3HAA may mediate the benefits of reducing haao-1. Indeed, worms supplemented with 3HAA were long-lived (FIG. 3C), mimicking haao-1 knockdown (FIG. 3D).

[2] = tested on: C. elegans expressing human Aβ1-42 in body wall muscle; test: Paralysis in C. elegans expressing human Aβ1-42 in body wall muscle (Alzheimer's disease model); format: in vivo, Caenorhabditis elegans; conditions: 3HAA supplementation; transgenic Aβ1-42 in body wall muscle
Protocol: It was then tested whether 3HAA would prevent Aβ toxicity in vivo. In C. elegans, transgenic expression of the aggregate-prone 42 amino acid form of Aβ (Aβ1-42) in body wall muscle induces paralysis (Link C D. Proc Natl Acad Sci USA 1995, 92:9368-72). […] Next and as described below, 3HAA will be tested as a treatment for amyloid pathology in a cellular context more relevant to AD.

[3] = tested on: C. elegans expressing a 35-unit polyglutamine repeat peptide in body wall muscle; test: Paralysis in C. elegans expressing a 35-unit polyglutamine repeat peptide in body wall muscle (Huntington's disease model); format: in vivo, Caenorhabditis elegans; conditions: 3HAA supplementation; aggregate-prone polyglutamine repeat in body wall muscle
[4] = Direct interaction of 3HAA with H2O2 in vitro; conditions: addition of 3HAA in the absence of other media components
Excerpt: (§1) Superoxide dismutases degrade cellular superoxide to oxygen and H2O2.

C. elegans [5] = test: Endogenous H2O2 produced by C. elegans in vivo; parameters: species or system Caenorhabditis elegans; conditions: 3HAA supplementation
Excerpt: as §1

Aβ = Aβ (Homo sapiens, UniProt P05067); conditions: buffered media; direct binding to Aβ; cited from earlier work
[6] = tested on: cultured human blood cells; conditions: cited from earlier work
brains of rats = conditions: cited from earlier work
hemeoxygenase-1 (HO-1) = conditions: human cell culture; cited from earlier work

Aβ, sequence (P05067 672-713 limits assumed): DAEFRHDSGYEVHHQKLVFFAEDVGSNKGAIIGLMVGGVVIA

Structure (SMILES)	tau phosphorylation (tau)	seeding of α-synuclein aggregation (α-synuclein)	in vivo lipid peroxidation in brain tissue (brain tissue)	lifespan (C. elegans [1])	onset of paralysis (Aβ toxicity) [2]	paralysis (polyglutamine repeat model) [3]	measureable H2O2 in vitro (direct degradation of H2O2) [4]	endogenous H2O2 produced by C. elegans in vivo (C. elegans [5])	Aβ misfolding/aggregation in vitro (Aβ)	LDL oxidation [6]	lipid peroxidation (brains of rats)	expression of hemeoxygenase-1 (HO-1) (hemeoxygenase-1 (HO-1))
O=C(O)c1cccnc1C(=O)O [QA, quinolinic acid]	drives tau phosphorylation	seed and accelerate aggregation of α-synuclein; also recorded: seeding aggregation of α-synuclein	induces in vivo lipid peroxidation in brain tissue	–	–	–	–	–	–	–	–	–
Nc1c(O)cccc1C(=O)O [3HAA, 3-hydroxyanthranilic acid]	–	–	–	long-lived; also recorded: extends lifespan; also recorded: robustly extended lifespan	delayed onset of paralysis; also recorded: delays paralysis; also recorded: delayed Aβ pathology	delays paralysis	reduced measureable H2O2; also recorded: directly breaks down H2O2; also recorded: directly degrades H2O2; also recorded: direct degradation of hydrogen peroxide	limited endogenous H2O2; also recorded: reduces H2O2 produced by C. elegans in vivo	prevents Aβ aggregation; also recorded: prevents Aβ misfolding through direct binding; also recorded: preventing misfolding and aggregation	prevents LDL oxidation	prevents	induces expression of the antioxidant hemeoxygenase-1 (HO-1)
